# In US11840686B2, “Modulation of prekallikrein (PKK) expression” (Ionis Pharmaceuticals, Inc., priority 2013, dated 2023):
# Strand notation (5' to 3'): a small letter for the sugar, then the base; units joined by * are phosphorothioate-linked, units joined directly phosphodiester-linked; [ ] holds rarer units or linkages, { } end groups; capitals alone tell only the bases. e = 2'-O-(2-methoxyethyl) (MOE); k = constrained ethyl (cEt); [5mC] = 5-methylcytosine; d = 2'-deoxy (DNA)
# Test system: human PKK mRNA
# Experiment: Antisense inhibition of human PKK mRNA in HepaRG cells, 1,000 nM, MOE/deoxy/cEt oligonucleotides (Example 3)
# Type: cell-based
# Procedure: Additional antisense oligonucleotides were designed targeting a PKK nucleic acid and were tested for their effects on PKK mRNA in vitro.
# The chimeric antisense oligonucleotides in the tables below were designed as deoxy, MOE and cEt gapmers. The gapmers are 16 nucleosides in length wherein the nucleoside have either a MOE sugar modification, a cEt sugar modification, or a deoxy modification. The ‘Chemistry’ column describes the sugar modifications of each oligonucleotide. ‘k’ indicates an cEt sugar modification; the number indicates the number of deoxynucleosides; otherwise, indicates a deoxynucleoside; and ‘e’ indicates a 2′-O-methoxyethyl modification. The internucleoside linkages throughout each gapmer are phosphorothioate linkages. All cytosine residues throughout each oligonucleotide are 5-methylcytosines. “Start site” indicates the 5′-most nucleoside to which the gapmer is targeted in the human gene sequence. “Stop site” indicates the 3′-most nucleoside to which the gapmer is targeted in the human gene sequence.
# Cultured HepaRG™ cells at a density of 20,000 cells per well were transfected using electroporation with 1,000 nM antisense oligonucleotide. After a treatment period of approximately 24 hours, RNA was isolated from the cells and PKK mRNA levels were measured by quantitative real-time PCR. Human primer probe set RTS3454 was used to measure mRNA levels. ISIS 531231 was also included in this assay. PKK mRNA levels were adjusted according to total RNA content, as measured by RIBOGREEN®. The antisense oligonucleotides were tested in a series of experiments that had similar culture conditions. Results are presented as percent inhibition of PKK, relative to untreated control cells.
# [1] = Table 28, HepaRG cells, 1,000 nM antisense oligonucleotide, human PKK mRNA
# [2] = Table 20, HepaRG cells, electroporation with 1,000 nM antisense oligonucleotide, approximately 24 hours, PKK mRNA by RT-PCR (RTS3454), relative to untreated control cells
# [3] = Table 22 experiment, HepaRG cells, electroporation with 1,000 nM antisense oligonucleotide, approx. 24 hours, PKK mRNA by RT-PCR (RTS3454), relative to untreated control cells
# [4] = HepaRG cells, electroporation with 1,000 nM antisense oligonucleotide, approximately 24 hours, primer probe set RTS3454, relative to untreated control cells, experiment of Table 24
# [5] = Table 21 experiment, HepaRG cells, electroporation with 1,000 nM antisense oligonucleotide, approx. 24 hours, PKK mRNA by RT-PCR (RTS3454), relative to untreated control cells
# [6] = HepaRG cells, electroporation with 1,000 nM antisense oligonucleotide, approx. 24 hours, PKK mRNA by RT-PCR (RTS3454), relative to untreated control cells, Table 26 experiment
# [7] = PKK mRNA, HepaRG cells, 1,000 nM antisense oligonucleotide, Table 31
# [8] = Table 27, HepaRG cells, 1,000 nM antisense oligonucleotide, human PKK mRNA
# [9] = HepaRG cells, 1,000 nM antisense oligonucleotide, Table 29
substance,measurement,setting,value
548491 (antisense eT*eG*kG*d[5mC]*d[5mC]*dA*dA*dG*d[5mC]*dA*dA*d[5mC]*d[5mC]*kA*kG*eT) [compound 548491],% inhibition,[1],57%
547909 (e[5mC]*e[5mC]*kA*dA*dT*dT*dT*d[5mC]*dT*dG*dA*dA*dA*kG*kG*eG; antisense) [compound 547909],% inhibition,[2],82%
same,% inhibition,[3],51%
548016 (eA*eA*kG*dA*dG*dT*dT*dT*dG*dT*dT*d[5mC]*d[5mC]*kT*k[5mC]*e[5mC]; antisense) [compound 548016],% inhibition,[4],55%
548478 (eG*eA*kG*d[5mC]*d[5mC]*dA*dT*d[5mC]*d[5mC]*dA*dG*dG*dG*kT*kG*e[5mC]; antisense) [compound 548478],% inhibition,[1],53%
547847 (antisense e[5mC]*eT*k[5mC]*dG*dA*dT*dG*dG*d[5mC]*dA*dA*dG*d[5mC]*kA*k[5mC]*eT) [compound 547847],% inhibition,[2],46%
same,% inhibition,[3],72%
547785 (antisense eG*eT*kT*dG*d[5mC]*dT*dT*dG*d[5mC]*dT*dT*dG*dA*kA*kT*eA) [compound 547785],% inhibition,[5],48%
548274 (antisense eT*eA*k[5mC]*d[5mC]*dT*dG*dA*d[5mC]*dA*dA*dG*dT*dG*kG*kT*e[5mC]) [compound 548274],% inhibition,[6],0%
548638 (antisense e[5mC]*e[5mC]*kT*d[5mC]*dA*dT*dT*dG*d[5mC]*dT*d[5mC]*d[5mC]*dA*k[5mC]*kT*eA) [compound 548638],% inhibition,[7],26%
547930 (eT*eG*kA*dT*dA*dG*dG*dT*dG*d[5mC]*dA*dG*dA*kT*kG*eG; antisense) [compound 547930],% inhibition,"HepaRG cells, electroporation with 1,000 nM antisense oligonucleotide, approximately 24 hours, primer probe set RTS3454, relative to untreated control cells, experiment of Table 23",48%
547802 (eG*eT*kA*d[5mC]*dA*dT*dG*dG*dA*dA*dG*d[5mC]*dT*kA*k[5mC]*eA; antisense) [compound 547802],% inhibition,[5],41%
548652 (antisense e[5mC]*e[5mC]*kA*d[5mC]*dG*dA*dT*dG*d[5mC]*dT*d[5mC]*dT*dG*kG*k[5mC]*e[5mC]) [compound 548652],% inhibition,[7],65%
547884 (e[5mC]*eG*kT*dG*dG*d[5mC]*dA*dT*dA*dT*dG*dA*dA*kA*kA*eA; antisense) [compound 547884],% inhibition,[2],87%
same,% inhibition,[3],49%
548176 (eG*eA*kT*d[5mC]*dT*d[5mC]*dA*dG*dT*dT*dG*d[5mC]*dG*kA*k[5mC]*e[5mC]; antisense) [compound 548176],% inhibition,"HepaRG cells, electroporation with 1,000 nM antisense oligonucleotide, approx. 24 hours, PKK mRNA by RT-PCR (RTS3454), relative to untreated control cells, Table 25 experiment",38%
548254 (antisense e[5mC]*e[5mC]*k[5mC]*dA*dT*dG*d[5mC]*dA*dT*dA*d[5mC]*dT*d[5mC]*kG*k[5mC]*e[5mC]) [compound 548254],% inhibition,[6],39%
547897 (eA*eT*kA*dG*dG*d[5mC]*dA*dA*dT*dT*dG*dT*dT*k[5mC]*k[5mC]*eG; antisense) [compound 547897],% inhibition,[3],82%
548349 (antisense eT*e[5mC]*k[5mC]*dA*dG*dA*dA*dT*dA*d[5mC]*dT*dG*d[5mC]*k[5mC]*k[5mC]*e[5mC]) [compound 548349],% inhibition,[8],61%
548021 (e[5mC]*eA*k[5mC]*dT*d[5mC]*dT*d[5mC]*d[5mC]*d[5mC]*d[5mC]*dA*dA*dG*kA*kA*eG; antisense) [compound 548021],% inhibition,[4],0%
548606 (e[5mC]*eG*kG*dT*dG*dG*dT*dG*dG*dG*dA*dT*dT*kG*kG*eT; antisense) [compound 548606],% inhibition,[9],41%
547823 (eA*eG*k[5mC]*dA*dA*d[5mC]*d[5mC]*dA*dA*dA*d[5mC]*d[5mC]*dT*kT*kT*eT; antisense) [compound 547823],% inhibition,[5],51%
548596 (eA*eT*kG*dG*d[5mC]*dG*dG*dT*dG*dA*dA*dG*d[5mC]*kA*kG*e[5mC]; antisense) [compound 548596],% inhibition,[9],20%
547907 (eA*eT*kT*dT*d[5mC]*dT*dG*dA*dA*dA*dG*dG*dG*k[5mC]*kA*e[5mC]; antisense) [compound 547907],% inhibition,[2],27%
same,% inhibition,[3],27%
548461 (e[5mC]*e[5mC]*kT*dA*dT*dA*dT*d[5mC]*dA*d[5mC]*dT*dG*dT*kA*kA*e[5mC]; antisense) [compound 548461],% inhibition,[1],0%
548376 (eG*e[5mC]*k[5mC]*dT*dT*dT*dG*dA*d[5mC]*d[5mC]*dT*dT*dT*k[5mC]*kG*e[5mC]; antisense) [compound 548376],% inhibition,[8],65%
547826 (eT*eT*k[5mC]*dG*dA*dT*dG*dT*dA*d[5mC]*dT*dT*dT*kT*kG*eG; antisense) [compound 547826],% inhibition,[5],31%
548360 (antisense e[5mC]*eA*kA*dG*dA*d[5mC]*dA*dT*d[5mC]*dA*dG*dT*dA*kG*k[5mC]*eT) [compound 548360],% inhibition,[8],45%
548287 (eG*eT*k[5mC]*dA*dA*dA*dG*dA*dG*dT*dG*dT*d[5mC]*k[5mC]*kA*e[5mC]; antisense) [compound 548287],% inhibition,[6],38%
548337 (antisense eT*eA*k[5mC]*d[5mC]*dG*d[5mC]*dT*dG*dG*dG*dT*dG*d[5mC]*kG*kG*eT) [compound 548337],% inhibition,[8],10%
548671 (antisense e[5mC]*eA*kA*d[5mC]*dA*dA*dT*d[5mC]*d[5mC]*dA*dA*dA*dG*k[5mC]*k[5mC]*eT) [compound 548671],% inhibition,[7],3%
547833 (eA*eA*k[5mC]*dT*dG*d[5mC]*dA*d[5mC]*d[5mC]*dT*dG*dT*dT*k[5mC]*kG*eA; antisense) [compound 547833],% inhibition,[5],40%
548141 (eG*e[5mC]*kA*dG*dA*dT*dG*dA*dG*dG*dA*d[5mC]*d[5mC]*k[5mC]*k[5mC]*e[5mC]; antisense) [compound 548141],% inhibition,"Table 19, HepaRG cells, electroporation with 1,000 nM antisense oligonucleotide, approximately 24 hours, PKK mRNA by RT-PCR (RTS3454), relative to untreated control cells",66%
548635 (antisense eA*eG*kG*dT*dG*dT*dG*dG*d[5mC]*dG*d[5mC]*dG*d[5mC]*kG*k[5mC]*e[5mC]) [compound 548635],% inhibition,[7],18%
548381 (e[5mC]*e[5mC]*k[5mC]*dA*d[5mC]*dT*dA*d[5mC]*d[5mC]*dA*dT*dT*dT*kG*kG*eG; antisense) [compound 548381],% inhibition,[8],0%
547784 (antisense eG*e[5mC]*kT*dT*dG*dA*dA*dT*dA*dA*dA*dA*dT*k[5mC]*kA*eT) [compound 547784],% inhibition,[5],46%
548241 (e[5mC]*eA*kT*dA*d[5mC]*dT*d[5mC]*dG*d[5mC]*d[5mC]*dT*dT*dT*kG*kT*eG; antisense) [compound 548241],% inhibition,[6],1%
548476 (eG*e[5mC]*kA*dA*dA*dT*d[5mC]*d[5mC]*dT*dT*d[5mC]*d[5mC]*dA*kG*k[5mC]*eA; antisense) [compound 548476],% inhibition,[1],27%
548566 (antisense e[5mC]*eA*k[5mC]*dT*d[5mC]*dA*dG*dA*d[5mC]*dT*dG*dT*d[5mC]*kT*kG*eA) [compound 548566],% inhibition,[9],0%
548552 (antisense eT*eG*kG*dA*dG*dG*dA*dG*dT*dA*dG*dG*dG*kA*kA*eT) [compound 548552],% inhibition,[9],10%
548522 (antisense eA*eG*kG*dT*dA*dT*dT*dG*dA*d[5mC]*d[5mC]*dG*d[5mC]*k[5mC]*kA*eG) [compound 548522],% inhibition,[1],55%
548256 (antisense eG*e[5mC]*kT*d[5mC]*d[5mC]*d[5mC]*d[5mC]*dA*dT*dG*d[5mC]*dA*dT*kA*k[5mC]*eT) [compound 548256],% inhibition,[6],25%
